A word on the melting point: it is the temperature of the solid-liquid transition. For the compound `CCOC(=O)N1CC2C(C1)C2Nc1ncc2cc(-c3ccccc3Cl)c(=O)n(C)c2n1` (stereo not shown) [Compound No. 68, 6-[6-(2-Chlorophenyl)-8-methyl-7-oxo-7,8-dihydro-pyrido[2,-d]pyrimidin-2-ylamino]-3-aza-bicyclo[3.1.0]hexane-3-carboxylic acid ethyl ester], the melting point was in the range of 118.7 to 125.2 °C.

Source of the values: US20090131430A1, “PYRIDO'2,3-DIPYRIMIDINES AS ANTI-INFLAMMATORY AGENTS” (priority 2004, published 2009).
